Data reported in ChEMBL document CHEMBL4651402, “Screening of ~5500 FDA-approved drugs and clinical candidates for anti-SARS-CoV-2 activity” (2021).

Tested on: SARS-CoV-2
Assay: microbe, parasite or virus in culture
Details: Severe acute respiratory syndrome coronavirus 2, Vero C1008, 48 h

| Compound | IC50 [µM] | IC50 (read-out: pIC50 (converted)) [µM] |
| --- | --- | --- |
| CCCc1nc2c(C)cc(-c3nc4ccccc4n3C)cc2n1Cc1ccc(-c2ccccc2C(=O)O)cc1 | > 20 | > 20 |
| CS(=O)(=O)Nc1ccc2c(c1)S(=O)(=O)N=C(C1=C(O)C3C4CCC(C4)C3N(Cc3ccc(F)cc3)C1=O)N2 (stereo not given) | > 20 | > 20 |
| NC(=O)NC(CC(=O)O)C(=O)O (stereo not given) | > 20 | > 20 |
| C[C@@H](NCCCc1cccc(C(F)(F)F)c1)c1cccc2ccccc12 | > 20 | > 20 |
| CC(=O)Oc1cc2c(s1)CCN(C(C(=O)C1CC1)c1ccccc1F)C2 (stereo not given) | > 20 | > 20 |
| COc1c2ccoc2nc2c(OC)c(OC[C@@H](O)C(C)(C)O)ccc12 | > 20 | > 20 |
| O=C1OCCN1/N=C\c1ccc([N+](=O)[O-])o1 | > 20 | > 20 |
| COc1ccc2cc([C@@H](C)C(=O)O)ccc2c1 | > 20 | > 20 |
| CCCC(=O)Nc1ncnc2c1ncn2[C@@H]1O[C@@H]2OP(=O)(O)OC[C@H]2[C@H]1OC(=O)CCC | > 20 | > 20 |
| CC(=O)OC(CC(=O)O)C[N+](C)(C)C (stereo not given) | > 20 | > 20 |
| Clc1cnccn1 | > 20 | > 20 |
| COc1ccc2oc3ccccc3c(=O)c2c1 | > 20 | > 20 |
| C[C@]12CCC3C(CCC4=C(Cl)C(=O)CC[C@@]43C)C1CCC2O (stereo not given in full) | > 20 | > 20 |
| CN1C2CCCC1CC(=O)C2 | > 20 | > 20 |
| CCC[C@@]1(CCc2ccccc2)CC(O)=C([C@H](CC)c2cccc(NS(=O)(=O)c3ccc(C(F)(F)F)cn3)c2)C(=O)O1 | > 20 | > 20 |
| O=C(Nc1ccccc1F)N[C@@H]1N=C(c2ccccc2)c2ccccc2NC1=O | > 20 | > 20 |
| CCN(CC)CCOc1ccc(Cc2ccccc2)cc1 | > 20 | > 20 |
| C[C@@H]1CC[C@]2(C(=O)O)CC[C@]3(C)C(=CCC4[C@@]5(C)CC[C@H](O)C(C)(C)C5CC[C@]43C)C2[C@H]1C (stereo not given in full) | > 20 | > 20 |
| CCCN(CCC)c1cc(C)nc2c(-c3cnc(N(C)C)cc3C)c(C)nn12 | > 20 | > 20 |
| CN1Cc2ccccc2[C@@H]2c3cccc4[nH]cc(c34)C[C@H]21 | > 20 | > 20 |
| COc1ccc(/C=C/C(=O)O)cc1OC | > 20 | > 20 |
| NS(=O)(=O)c1ccc(N2CCCCS2(=O)=O)cc1 | > 20 | > 20 |
| CC1(C)C2=CCC3C(CCC4(C)C3CC[C@]4(C)O)C2(C)Cc2cnoc21 (stereo not given in full) | > 20 | > 20 |
| CC(C)(CO)C(=O)SCCOP(=O)(NCc1ccccc1)OC[C@H]1O[C@@H](n2cnc3c(=O)[nH]c(N)nc32)[C@](C)(O)[C@@H]1O (stereo not given in full) | > 20 | > 20 |

| Compound | IC50 [µM] | IC50 (read-out: pIC50 (converted)) [µM] |
| --- | --- | --- |
| CNc1ncnc2c1ncn2[C@@H]1O[C@H](CO)[C@@H](O)[C@H]1O | > 20 | > 20 |
| O=C(/N=C(/Nc1cc(F)cc(Cl)c1)Nc1cc(C(F)(F)F)[nH]n1)c1cccc(Cl)c1 | > 20 | > 20 |
| Cc1nc(N(C)C(=O)Cc2ccc(-c3ccccn3)cc2)sc1S(N)(=O)=O | > 20 | > 20 |
| COc1ccc(-n2[nH]c(=O)c3[nH]c4cc(Cl)ccc4c(=O)c3c2=O)c(C)c1 | > 20 | > 20 |
| CCCn1c(=O)c2nc(C34CC5CC(CC(C5)C3)C4)[nH]c2n(CCC)c1=O | > 20 | > 20 |
| CN[C@H]1[C@H](O)[C@H](O[C@@H]2[C@@H](O)[C@H](O[C@H]3O[C@H]([C@@H](C)O)[C@@H](O)[C@H](O)[C@H]3N)[C@@H](N)C[C@H]2N)OC[C@@]1(C)O | > 20 | > 20 |
| O=C(/C=C/c1c(C(=O)O)[nH]c2cc(Cl)cc(Cl)c12)Nc1ccccc1 | > 20 | > 20 |
| C=C1[C@@H](O)C23C[C@@H]1[C@@H](O)C[C@H]2[C@@]12[C@@H]4[C@H]3C[C@@H]1[C@@](C)(CC[C@@H]2O)CN4CC | > 20 | > 20 |
| Cc1nc(N2CCOC[C@@H]2C)nc(-n2ccnc2)c1[N+](=O)[O-] | > 20 | > 20 |
| CCCCCCCCCC(=O)N[C@@H](Cc1c[nH]c2ccccc12)C(=O)N[C@H](CC(N)=O)C(=O)N[C@@H](CC(=O)O)C(=O)N[C@@H]1C(=O)NCC(=O)N[C@@H](CCCN)C(=O)N[C@@H](CC(=O)O)C(=O)N[C@H](C)C(=O)N[C@@H](CC(=O)O)C(=O)NCC(=O)N[C@H](CO)C(=O)N[C@@H]([C@H](C)CC(=O)O)C(=O)N[C@@H](CC(=O)c2ccccc2N)C(=O)O[C@@H]1C | > 20 | > 20 |
| C=C[C@]1(C)C[C@@H](OC(=O)CSCCN(CC)CC)[C@]2(C)C(C)CC[C@]3(CCC(=O)[C@@H]32)[C@@H](C)[C@@H]1O (stereo not given in full) | > 20 | > 20 |
| CCC(=O)OC1C(OC2C(C)C(OC3CC(C)(OC)C(O)C(C)O3)C(C)C(=O)OC(CC)C(C)(O)C(O)C(C)C(=O)C(C)CC2(C)O)OC(C)CC1N(C)C (stereo not given) | > 20 | > 20 |
| O=C(O)CC[C@H]1CC[C@](c2cc(F)ccc2F)(S(=O)(=O)c2ccc(Cl)cc2)CC1 | > 20 | > 20 |
| CC[C@]12C=CCN3CCC4(c5ccc(OC)cc5N(C)[C@H]4[C@](O)(C(=O)OC)[C@@H]1OC(C)=O)C32 (stereo not given in full) | > 20 | > 20 |
| CC1CC(OC(=O)C2CCC(=O)N2)CC(C)(C)C1 (stereo not given) | > 20 | > 20 |
| CO[C@H]1/C=C\C=C(\C)C(=O)NC2=CC(=O)C(NCCN(C)C)=C(C[C@@H](C)C[C@H](OC)[C@H](O)[C@@H](C)/C=C(/C)[C@@H]1OC(N)=O)C2=O | > 20 | > 20 |
| C=C(C)[C@@H]1CC[C@]2(C(=O)O)CC[C@]3(C)[C@H](CCC4[C@@]5(C)CC[C@@H](O)C(C)(C)C5CC[C@]43C)C12 (stereo not given in full) | > 20 | > 20 |
| N[C@@H](CCC(=O)N[C@@H](Cc1c[nH]c2ccccc12)C(=O)O)C(=O)O | > 20 | > 20 |
| CCN1C[C@@]2(COC)C3[C@@H](OC)[C@H]4[C@H]1C3([C@@H]1C[C@@]3(O)[C@H](OC(=O)c5ccccc5)[C@@H]1[C@]4(OC(C)=O)[C@@H](O)[C@@H]3OC)[C@H](OC)C[C@H]2O | > 20 | > 20 |
| COc1ccc(-c2ccc(=O)n(Cc3ccc(Cl)cc3F)c2)cc1 | > 20 | > 20 |
| CC(=O)C12OC(C)(C)OC1CC1C3CCC4=CC(=O)CCC4(C)C3CCC12C (stereo not given) | > 20 | > 20 |
| CC(C)C(=O)Nc1ccc([N+](=O)O)c(C(F)(F)F)c1 | > 20 | > 20 |
| CCC[C@H](N[C@@H](C)C(=O)N1C2CCCCC2C[C@H]1C(=O)O)C(=O)OCC (stereo not given in full) | > 20 | > 20 |
| CC(=O)O[C@H]1CC[C@@]2(C)[C@H](CC[C@@H]3[C@@H]2CC[C@]2(C)C(=O)CC[C@@H]32)C1 | > 20 | > 20 |

| Compound | IC50 [µM] | IC50 (read-out: pIC50 (converted)) [µM] |
| --- | --- | --- |
| O=C(O)C1N[C@H](C(=O)O)CS1 (stereo not given in full) | > 20 | > 20 |
| CC12CCC(O)CC1CCC1[C@@H]2CC(O)C2(C)C(C3=CC(=O)OC3)CCC12O (stereo not given in full) | > 20 | > 20 |
| CN(C)CCOc1ccc2c(=O)c3ccc(OCCN(C)C)cc3oc2c1 | > 20 | > 20 |
| CC(C)(C)NC(=O)[C@H]1CC[C@H]2[C@H]3CC[C@H]4NC(=O)C=C[C@]4(C)[C@H]3CC[C@]12C | > 20 | > 20 |
| O[C@@H]1[C@@H](O)[C@@H](O)CN2CC[C@@H](O)[C@H]12 | > 20 | > 20 |
| CC(=O)Oc1ccc2c(c1)CCC1C2CCC2(C)C(O)CCC12 (stereo not given) | > 20 | > 20 |
| CC(C)[C@@]1(NC(=O)[C@@H]2C[C@@H]3c4cccc5[nH]cc(c45)C[C@H]3N(C)C2)O[C@@]2(O)[C@@H]3CCCN3C(=O)[C@H](C)N2C1=O | > 20 | > 20 |
| c1cnc2c(c1)CC1(CN3CCC1CC3)O2 (stereo not given) | > 20 | > 20 |
| NS(=O)(=O)c1cc(C(=O)NN2CC3C4CCC(C4)C3C2)ccc1Cl (stereo not given) | > 20 | > 20 |
| O=C(O)c1ccc(NC(=O)C(Cc2ccc(O)cc2)NC(=O)c2ccccc2)cc1 (stereo not given) | > 20 | > 20 |
| NCCC(O)C(=O)N[C@H]1C[C@@H](N)[C@H](O[C@H]2O[C@H](CN)[C@@H](O)[C@H](O)[C@H]2O)[C@@H](O)[C@@H]1O[C@H]1O[C@H](CO)[C@@H](O)[C@H](N)[C@H]1O (stereo not given in full) | > 20 | > 20 |
| CC1CNc2c(cccc2S(=O)(=O)N[C@@H](CCCNC(=N)N)C(=O)N2CC[C@H](C)C[C@@H]2C(=O)O)C1 (stereo not given in full) | > 20 | > 20 |
| CCN1C[C@]2(OC(=O)c3ccccc3NC(C)=O)CC[C@H](OC)[C@@]34[C@@H]2C[C@@H]([C@@H]13)[C@@]1(O)C[C@H](OC)[C@H]2C[C@@H]4[C@]1(O)[C@H]2OC | > 20 | > 20 |
| COC(=O)OC[C@H]1O[C@@H](Oc2cc(C)cc(O)c2C(=O)CCc2ccc3occc3c2)[C@H](O)[C@@H](O)[C@@H]1O | > 20 | > 20 |
| c1ccc(C(CCN2CCCCC2)c2ccccc2)cc1 | > 20 | > 20 |
| C[C@@H]1CC[C@@]2(NC1)O[C@H]1C[C@H]3[C@@H]4CC=C5C[C@@H](O)CC[C@]5(C)[C@H]4CC[C@]3(C)[C@H]1[C@@H]2C | > 20 | > 20 |
| COC1=C[C@@H]2C3=C([C@@H]2C1=O)[C@@H](NC(C)=O)CCc1cc(OC)c(OC)c(OC)c13 | > 20 | > 20 |
| Nc1nonc1/C(=N/O)Nc1ccc(F)c(Cl)c1 | > 20 | > 20 |
| C[N+]12CCC(CC1)C(OC(=O)C(O)(c1ccccc1)c1ccccc1)C2 (stereo not given) | > 20 | > 20 |
| O=C1Nc2ccc(I)cc2/C1=C/c1cc(Br)c(O)c(Br)c1 | > 20 | > 20 |
| CC12C=CC(=O)C=C1CCC1C2CCC2(C)C(=O)CCC12 (stereo not given) | > 20 | > 20 |
| NC1CCN(c2cccc(Cl)n2)CC1 | > 20 | > 20 |
